Source: US9980943B2, “Methods of treating muscular dystrophy” (BOARD OF REGENTS OF THE NEVADA SYSTEM OF HIGHER EDUCATION, …, priority 2013, dated 2018)

What was measured:
Format in all cases: cell-based, mouse
[1] = system: β-galactosidase in CMV-LacZ C2C12 myoblasts; experiment: CMV-LacZ secondary screen in C2C12 myoblasts (β-Gal stabilizing assay); conditions: CMV-LacZ C2C12 myoblasts
How it was run: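 First, C2C12 myoblasts were transfected with a linearized CMV-LACZ vector and clonal lines selected by FDG β-gal assay. Then cells were exposed to compounds at 0.5, 1, 5, 10, 20 and 40 μM in 96-well format, two replicates each, and β-gal measured.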

[2] = system: β-galactosidase in CMV-LacZ C2C12 myotubes; experiment: CMV-LacZ secondary screen in C2C12 myotubes (β-Gal stabilizing assay); conditions: C2C12 CMV-LacZ myotubes, fold relative to DMSO
How it was run: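 β-Gal level was the read-out, measured in a clonal C2C12 line expressing LacZ from a CMV promoter. Dose-response curves used six concentrations, 0.5 μM up to 40 μM, with duplicate points.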

[3] = system: α7 integrin (LacZ reporter in α7+/LacZ myotubes); experiment: Myotube α7 integrin FDG assay (Burkin assay in myotubes, 96-well); conditions: myotubes
[4] = system: α7 integrin (LacZ reporter in α7βgal+/− myoblasts); experiment: Myoblast α7+/LacZ integrin FDG assay (Burkin assay in myoblasts, 96-well); conditions: α7+/LacZ myoblasts, 96-well

For `O=C(NCc1ccccc1)c1csc(-c2cccnc2)n1` [MLS000860966-01], the “CMV-LACZ in Myoblasts (β-galactosidase activity relative to DMSO)” value ([1]; 0.5 uM) was 0.9370, the “CMV-LACZ in Myoblasts (β-galactosidase activity relative to DMSO)” value ([1]; 1 uM) was 1.0900 and the “CMV-LACZ in Myoblasts (β-galactosidase activity relative to DMSO)” value ([1]; 5 uM) was 0.7918. For the same molecule, the “CMV-LACZ in Myoblasts (β-galactosidase activity relative to DMSO)” value ([1]; 10 uM) was 0.8424, the “CMV-LACZ in Myoblasts (β-galactosidase activity relative to DMSO)” value ([1]; 20 uM) was 0.6232 and the “CMV-LACZ in Myoblasts (β-galactosidase activity relative to DMSO)” value ([1]; 40 uM) was 0.7600. For the same molecule, the “CMV-LACZ in Myotubes, signal relative to DMSO” value ([2]; 0.5 uM) was 0.8229, the “CMV-LACZ in Myotubes, signal relative to DMSO” value ([2]; 1 uM) was 1.0743 and the “CMV-LACZ in Myotubes, signal relative to DMSO” value ([2]; 5 uM) was 0.9632. For the same molecule, the “CMV-LACZ in Myotubes, signal relative to DMSO” value ([2]; 10 uM) was 0.8601, the “CMV-LACZ in Myotubes, signal relative to DMSO” value ([2]; 20 uM) was 0.9190 and the “CMV-LACZ in Myotubes, signal relative to DMSO” value ([2]; 40 uM) was 0.7920. The “Burkin Assay in Myotubes, α7 integrin LacZ reporter signal relative to DMSO” value ([3]; 0.5 uM) was 0.9275, the “Burkin Assay in Myotubes, α7 integrin LacZ reporter signal relative to DMSO” value ([3]; 1 uM) was 0.8211 and the “Burkin Assay in Myotubes, α7 integrin LacZ reporter signal relative to DMSO” value ([3]; 5 uM) was 1.1137. The “Burkin Assay in Myotubes, α7 integrin LacZ reporter signal relative to DMSO” value ([3]; 10 uM) was 1.107, the “Burkin Assay in Myotubes, α7 integrin LacZ reporter signal relative to DMSO” value ([3]; 20 uM) was 1.06 and the “Burkin Assay in Myotubes, α7 integrin LacZ reporter signal relative to DMSO” value ([3]; 40 uM) was 0.8927. The “Burkin Assay in Myoblasts, signal relative to DMSO” value ([4]; 0.5 uM) was 0.8092, the “Burkin Assay in Myoblasts, signal relative to DMSO” value ([4]; 1 uM) was 0.9506 and the “Burkin Assay in Myoblasts, signal relative to DMSO” value ([4]; 5 uM) was 1.225. For the same molecule, the “Burkin Assay in Myoblasts, signal relative to DMSO” value ([4]; 10 uM) was 1.126, the “Burkin Assay in Myoblasts, signal relative to DMSO” value ([4]; 20 uM) was 1.242 and the “Burkin Assay in Myoblasts, signal relative to DMSO” value ([4]; 40 uM) was 1.117.

With `NS(=O)(=O)c1ccc(NC(=O)CN2CCc3ccccc32)cc1` [MLS000850522-01] the “CMV-LACZ in Myoblasts (β-galactosidase activity relative to DMSO)” value ([1]; 0.5 uM) was 0.8880, the “CMV-LACZ in Myoblasts (β-galactosidase activity relative to DMSO)” value ([1]; 1 uM) was 1.3763 and the “CMV-LACZ in Myoblasts (β-galactosidase activity relative to DMSO)” value ([1]; 5 uM) was 0.8809. For the same molecule, the “CMV-LACZ in Myoblasts (β-galactosidase activity relative to DMSO)” value ([1]; 10 uM) was 0.8671, the “CMV-LACZ in Myoblasts (β-galactosidase activity relative to DMSO)” value ([1]; 20 uM) was 0.8358 and the “CMV-LACZ in Myoblasts (β-galactosidase activity relative to DMSO)” value ([1]; 40 uM) was 1.0091. For the same molecule, the “CMV-LACZ in Myotubes, signal relative to DMSO” value ([2]; 0.5 uM) was 0.8848, the “CMV-LACZ in Myotubes, signal relative to DMSO” value ([2]; 1 uM) was 0.8933 and the “CMV-LACZ in Myotubes, signal relative to DMSO” value ([2]; 5 uM) was 1.1090. The “CMV-LACZ in Myotubes, signal relative to DMSO” value ([2]; 10 uM) was 1.0751, the “CMV-LACZ in Myotubes, signal relative to DMSO” value ([2]; 20 uM) was 1.0580 and the “CMV-LACZ in Myotubes, signal relative to DMSO” value ([2]; 40 uM) was 1.0200. For the same molecule, the “Burkin Assay in Myotubes, α7 integrin LacZ reporter signal relative to DMSO” value ([3]; 0.5 uM) was 0.9439, the “Burkin Assay in Myotubes, α7 integrin LacZ reporter signal relative to DMSO” value ([3]; 1 uM) was 0.9058 and the “Burkin Assay in Myotubes, α7 integrin LacZ reporter signal relative to DMSO” value ([3]; 5 uM) was 1.11. The “Burkin Assay in Myotubes, α7 integrin LacZ reporter signal relative to DMSO” value ([3]; 10 uM) was 0.9263, the “Burkin Assay in Myotubes, α7 integrin LacZ reporter signal relative to DMSO” value ([3]; 20 uM) was 0.9416 and the “Burkin Assay in Myotubes, α7 integrin LacZ reporter signal relative to DMSO” value ([3]; 40 uM) was 0.9324. For the same molecule, the “Burkin Assay in Myoblasts, signal relative to DMSO” value ([4]; 0.5 uM) was 0.7993, the “Burkin Assay in Myoblasts, signal relative to DMSO” value ([4]; 1 uM) was 0.9332 and the “Burkin Assay in Myoblasts, signal relative to DMSO” value ([4]; 5 uM) was 1.307. For the same molecule, the “Burkin Assay in Myoblasts, signal relative to DMSO” value ([4]; 10 uM) was 1.003, the “Burkin Assay in Myoblasts, signal relative to DMSO” value ([4]; 20 uM) was 0.8743 and the “Burkin Assay in Myoblasts, signal relative to DMSO” value ([4]; 40 uM) was 0.8805.

For `Cc1ccccc1NC(=O)NCCCN1CCN(C)CC1` [MLS001197665-01], the “CMV-LACZ in Myoblasts (β-galactosidase activity relative to DMSO)” value ([1]; 0.5 uM) was 0.8584, the “CMV-LACZ in Myoblasts (β-galactosidase activity relative to DMSO)” value ([1]; 1 uM) was 0.8347 and the “CMV-LACZ in Myoblasts (β-galactosidase activity relative to DMSO)” value ([1]; 5 uM) was 0.9214. For the same molecule, the “CMV-LACZ in Myoblasts (β-galactosidase activity relative to DMSO)” value ([1]; 10 uM) was 0.8403, the “CMV-LACZ in Myoblasts (β-galactosidase activity relative to DMSO)” value ([1]; 20 uM) was 0.9556 and the “CMV-LACZ in Myoblasts (β-galactosidase activity relative to DMSO)” value ([1]; 40 uM) was 1.0267. The “CMV-LACZ in Myotubes, signal relative to DMSO” value ([2]; 0.5 uM) was 0.9415, the “CMV-LACZ in Myotubes, signal relative to DMSO” value ([2]; 1 uM) was 0.8756 and the “CMV-LACZ in Myotubes, signal relative to DMSO” value ([2]; 5 uM) was 0.9771. The “CMV-LACZ in Myotubes, signal relative to DMSO” value ([2]; 10 uM) was 1.2593, the “CMV-LACZ in Myotubes, signal relative to DMSO” value ([2]; 20 uM) was 1.0047 and the “CMV-LACZ in Myotubes, signal relative to DMSO” value ([2]; 40 uM) was 1.0741. The “Burkin Assay in Myotubes, α7 integrin LacZ reporter signal relative to DMSO” value ([3]; 0.5 uM) was 1.115, the “Burkin Assay in Myotubes, α7 integrin LacZ reporter signal relative to DMSO” value ([3]; 1 uM) was 1.068 and the “Burkin Assay in Myotubes, α7 integrin LacZ reporter signal relative to DMSO” value ([3]; 5 uM) was 0.973. For the same molecule, the “Burkin Assay in Myotubes, α7 integrin LacZ reporter signal relative to DMSO” value ([3]; 10 uM) was 0.999, the “Burkin Assay in Myotubes, α7 integrin LacZ reporter signal relative to DMSO” value ([3]; 20 uM) was 1.001 and the “Burkin Assay in Myotubes, α7 integrin LacZ reporter signal relative to DMSO” value ([3]; 40 uM) was 0.9583. The “Burkin Assay in Myoblasts, signal relative to DMSO” value ([4]; 0.5 uM) was 1.062, the “Burkin Assay in Myoblasts, signal relative to DMSO” value ([4]; 1 uM) was 1.069 and the “Burkin Assay in Myoblasts, signal relative to DMSO” value ([4]; 5 uM) was 1.015. For the same molecule, the “Burkin Assay in Myoblasts, signal relative to DMSO” value ([4]; 10 uM) was 0.9523, the “Burkin Assay in Myoblasts, signal relative to DMSO” value ([4]; 20 uM) was 1.094 and the “Burkin Assay in Myoblasts, signal relative to DMSO” value ([4]; 40 uM) was 1.189.
